Experimental data from ChEMBL document CHEMBL5303573, “Mapping human microbiome drug metabolism by gut bacteria and their genes” (Nature, 2019).
One block for each compound: values may come before it.

What was measured:
[1] = The drug is tested on Bifidobacterium longum subsp. Infantis strain: CCUG52486 for biotransformation. The drug concentrations were measured before and after a 12-h incubation by liquid-chromatography-coupled mass spectrometry (LC–MS); settings: 2 µM
[2] = The drug is tested on Collinsella aerofaciens strain: ATCC25986 for biotransformation. The drug concentrations were measured before and after a 12-h incubation by liquid-chromatography-coupled mass spectrometry (LC–MS); settings: 2 µM
[3] = The drug is tested on Bacteroides pectinophilus strain: ATCC43243 for biotransformation. The drug concentrations were measured before and after a 12-h incubation by liquid-chromatography-coupled mass spectrometry (LC–MS); settings: 2 µM
[4] = segatella copri, 12 h, 2 µM
Description: The drug is tested on Prevotella copri strain: DSM18205 for biotransformation. The drug concentrations were measured before and after a 12-h incubation by liquid-chromatography-coupled mass spectrometry (LC–MS)

[5] = enterocloster bolteae, 12 h, 2 µM
Description: The drug is tested on Clostridium bolteae strain: ATCCBAA-613 for biotransformation. The drug concentrations were measured before and after a 12-h incubation by liquid-chromatography-coupled mass spectrometry (LC–MS)

[6] = The drug is tested on Ruminococcus torques strain: ATCC27756 for biotransformation. The drug concentrations were measured before and after a 12-h incubation by liquid-chromatography-coupled mass spectrometry (LC–MS); assay type: ADME; design: dose 2 uM, timepoint 0 vs 12 hours; settings: 2 µM
[7] = The drug is tested on Providencia rettgeri strain: DSM1131 for biotransformation. The drug concentrations were measured before and after a 12-h incubation by liquid-chromatography-coupled mass spectrometry (LC–MS); assay type: ADME; design: dose 2 uM, timepoint 0 vs 12 hours; settings: 2 µM
[8] = The drug is tested on Eubacterium hallii strain: DSM3353 for biotransformation. The drug concentrations were measured before and after a 12-h incubation by liquid-chromatography-coupled mass spectrometry (LC–MS); settings: anaerobutyricum hallii, 2 µM
[9] = parabacteroides distasonis, 12 h, 2 µM
Description: The drug is tested on Parabacteroides distasonis strain: ATCC8503 for biotransformation. The drug concentrations were measured before and after a 12-h incubation by liquid-chromatography-coupled mass spectrometry (LC–MS)

[10] = The drug is tested on Bacteroides caccae strain: ATCC43185 for biotransformation. The drug concentrations were measured before and after a 12-h incubation by liquid-chromatography-coupled mass spectrometry (LC–MS); settings: 2 µM
[11] = The drug is tested on Bacteroides finegoldii strain: DSM17565 for biotransformation. The drug concentrations were measured before and after a 12-h incubation by liquid-chromatography-coupled mass spectrometry (LC–MS); settings: 2 µM
[12] = The drug is tested on Clostridium symbiosum strain: ATCC14940 for biotransformation. The drug concentrations were measured before and after a 12-h incubation by liquid-chromatography-coupled mass spectrometry (LC–MS); settings: 2 µM
[13] = The drug is tested on Eubacterium rectale strain: ATCC33656 for biotransformation. The drug concentrations were measured before and after a 12-h incubation by liquid-chromatography-coupled mass spectrometry (LC–MS); settings: agathobacter rectalis, 2 µM
[14] = bacteroides fragilis, 12 h, 2 µM
Description: The drug is tested on Bacteroides fragilis strain: DS-208 for biotransformation. The drug concentrations were measured before and after a 12-h incubation by liquid-chromatography-coupled mass spectrometry (LC–MS)

[15] = parabacteroides johnsonii, 12 h, 2 µM
Description: The drug is tested on Parabacteroides johnsonii strain: DSM18315 for biotransformation. The drug concentrations were measured before and after a 12-h incubation by liquid-chromatography-coupled mass spectrometry (LC–MS)

[16] = The drug is tested on Parabacteroides merdae strain: ATCC43184 for biotransformation. The drug concentrations were measured before and after a 12-h incubation by liquid-chromatography-coupled mass spectrometry (LC–MS); settings: 2 µM
[17] = The drug is tested on Anaerococcus hydrogenalis strain: DSM7454 for biotransformation. The drug concentrations were measured before and after a 12-h incubation by liquid-chromatography-coupled mass spectrometry (LC–MS); settings: 2 µM
[18] = bacteroides fragilis, 12 h, 2 µM; remark: listed apart in the source
Description: The drug is tested on Bacteroides fragilis strain: NCTC 9343 for biotransformation. The drug concentrations were measured before and after a 12-h incubation by liquid-chromatography-coupled mass spectrometry (LC–MS)

[19] = The drug is tested on Eggerthella lenta strain: ATCC25559 for biotransformation. The drug concentrations were measured before and after a 12-h incubation by liquid-chromatography-coupled mass spectrometry (LC–MS); settings: 2 µM
[20] = limosilactobacillus reuteri cf48-3a, 12 h, 2 µM
Description: The drug is tested on Lactobacillus reuteri CF48-3A strain: BEI HM-102 for biotransformation. The drug concentrations were measured before and after a 12-h incubation by liquid-chromatography-coupled mass spectrometry (LC–MS)

[21] = The drug is tested on Bacteroides coprophilus strain: DSM18228 for biotransformation. The drug concentrations were measured before and after a 12-h incubation by liquid-chromatography-coupled mass spectrometry (LC–MS); settings: 2 µM
[22] = The drug is tested on Coprococcus comes strain: ATCC27758 for biotransformation. The drug concentrations were measured before and after a 12-h incubation by liquid-chromatography-coupled mass spectrometry (LC–MS); assay type: ADME; design: dose 2 uM, timepoint 0 vs 12 hours; settings: 2 µM
[23] = The drug is tested on Clostridium sporogenes strain: ATCC15579 for biotransformation. The drug concentrations were measured before and after a 12-h incubation by liquid-chromatography-coupled mass spectrometry (LC–MS); settings: 2 µM
[24] = The drug is tested on Bifidobacterium ruminantium strain: fecal isolate for biotransformation. The drug concentrations were measured before and after a 12-h incubation by liquid-chromatography-coupled mass spectrometry (LC–MS); settings: 2 µM
[25] = The drug is tested on Escherichia coli strain: BW25113 for biotransformation. The drug concentrations were measured before and after a 12-h incubation by liquid-chromatography-coupled mass spectrometry (LC–MS); settings: 2 µM
[26] = roseburia intestinalis, 12 h, 2 µM
Description: The drug is tested on Roseburia intestinalis strain: L1-82 for biotransformation. The drug concentrations were measured before and after a 12-h incubation by liquid-chromatography-coupled mass spectrometry (LC–MS)

[27] = The drug is tested on Bacteroides ovatus strain: ATCC8483 for biotransformation. The drug concentrations were measured before and after a 12-h incubation by liquid-chromatography-coupled mass spectrometry (LC–MS); settings: 2 µM
[28] = bifidobacterium adolescentis, 12 h, 2 µM
Description: The drug is tested on Bifidobacterium adolescentis strain: ATCC 15703 for biotransformation. The drug concentrations were measured before and after a 12-h incubation by liquid-chromatography-coupled mass spectrometry (LC–MS)

[29] = The drug is tested on Subdoligranulum variabile strain: DSM15176 for biotransformation. The drug concentrations were measured before and after a 12-h incubation by liquid-chromatography-coupled mass spectrometry (LC–MS); settings: 2 µM
[30] = The drug is tested on Alistipes indistinctus strain: DSM22520 for biotransformation. The drug concentrations were measured before and after a 12-h incubation by liquid-chromatography-coupled mass spectrometry (LC–MS); settings: 2 µM
[31] = anaerostipes sp., 12 h, 2 µM
Description: The drug is tested on Anaerostipes sp. strain: fecal isolate for biotransformation. The drug concentrations were measured before and after a 12-h incubation by liquid-chromatography-coupled mass spectrometry (LC–MS)

[32] = The drug is tested on Bacteroides vulgatus strain: ATCC8482 for biotransformation. The drug concentrations were measured before and after a 12-h incubation by liquid-chromatography-coupled mass spectrometry (LC–MS); settings: phocaeicola vulgatus, 2 µM
[33] = bacteroides fragilis, 12 h, 2 µM; remark: listed apart in the source
Description: The drug is tested on Bacteroides fragilis strain: 3397 (T10) for biotransformation. The drug concentrations were measured before and after a 12-h incubation by liquid-chromatography-coupled mass spectrometry (LC–MS)

[34] = The drug is tested on Ruminococcus gnavus strain: ATCC29149 for biotransformation. The drug concentrations were measured before and after a 12-h incubation by liquid-chromatography-coupled mass spectrometry (LC–MS); settings: mediterraneibacter gnavus, 2 µM
[35] = bacteroides stercoris, 12 h, 2 µM
Description: The drug is tested on Bacteroides stercoris strain: ATCC43183 for biotransformation. The drug concentrations were measured before and after a 12-h incubation by liquid-chromatography-coupled mass spectrometry (LC–MS)

[36] = The drug is tested on Collinsella intestinalis strain: DSM13280 for biotransformation. The drug concentrations were measured before and after a 12-h incubation by liquid-chromatography-coupled mass spectrometry (LC–MS); settings: 2 µM
[37] = The drug is tested on Bacteroides uniformis strain: ATCC8492 for biotransformation. The drug concentrations were measured before and after a 12-h incubation by liquid-chromatography-coupled mass spectrometry (LC–MS); settings: 2 µM
[38] = akkermansia muciniphila, 12 h, 2 µM
Description: The drug is tested on Akkermansia muciniphila strain: ATCC BAA-835 for biotransformation. The drug concentrations were measured before and after a 12-h incubation by liquid-chromatography-coupled mass spectrometry (LC–MS)

[39] = The drug is tested on Bacteroides xylanisolvens strain: DSM18836 for biotransformation. The drug concentrations were measured before and after a 12-h incubation by liquid-chromatography-coupled mass spectrometry (LC–MS); settings: 2 µM
[40] = bacteroides eggerthii, 12 h, 2 µM
Description: The drug is tested on Bacteroides eggerthii strain: DSM20697 for biotransformation. The drug concentrations were measured before and after a 12-h incubation by liquid-chromatography-coupled mass spectrometry (LC–MS)

[41] = The drug is tested on Bacteroides sp. WH2 strain: WH2 for biotransformation. The drug concentrations were measured before and after a 12-h incubation by liquid-chromatography-coupled mass spectrometry (LC–MS); settings: bacteroides sp. wh2, 12 h, 2 µM
[42] = The drug is tested on Bifidobacterium breve strain: DSM20213 for biotransformation. The drug concentrations were measured before and after a 12-h incubation by liquid-chromatography-coupled mass spectrometry (LC–MS); settings: 2 µM
[43] = The drug is tested on Bacteroides fragilis strain: HMW615 for biotransformation. The drug concentrations were measured before and after a 12-h incubation by liquid-chromatography-coupled mass spectrometry (LC–MS); settings: 2 µM
[44] = The drug is tested on Clostridium scindens strain: ATCC35704 for biotransformation. The drug concentrations were measured before and after a 12-h incubation by liquid-chromatography-coupled mass spectrometry (LC–MS); settings: 2 µM
[45] = The drug is tested on Ruminococcus lactaris strain: ATCC29176 for biotransformation. The drug concentrations were measured before and after a 12-h incubation by liquid-chromatography-coupled mass spectrometry (LC–MS); settings: 2 µM
[46] = The drug is tested on Enterococcus faecalis strain: V583 for biotransformation. The drug concentrations were measured before and after a 12-h incubation by liquid-chromatography-coupled mass spectrometry (LC–MS); settings: 2 µM
[47] = bacteroides thetaiotaomicron, 12 h, 2 µM
Description: The drug is tested on Bacteroides thetaiotaomicron strain: VPI-5482 for biotransformation. The drug concentrations were measured before and after a 12-h incubation by liquid-chromatography-coupled mass spectrometry (LC–MS)

[48] = bacteroides intestinalis, 12 h, 2 µM
Description: The drug is tested on Bacteroides intestinalis strain: DSM17393 for biotransformation. The drug concentrations were measured before and after a 12-h incubation by liquid-chromatography-coupled mass spectrometry (LC–MS)

[49] = The drug is tested on Bacteroides cellulosilyticus strain: DSM14838 for biotransformation. The drug concentrations were measured before and after a 12-h incubation by liquid-chromatography-coupled mass spectrometry (LC–MS); settings: 2 µM
[50] = The drug is tested on Edwardsiella tarda strain: ATCC23685 for biotransformation. The drug concentrations were measured before and after a 12-h incubation by liquid-chromatography-coupled mass spectrometry (LC–MS); settings: 2 µM
[51] = The drug is tested on Dorea formicigenerans strain: ATCC27755 for biotransformation. The drug concentrations were measured before and after a 12-h incubation by liquid-chromatography-coupled mass spectrometry (LC–MS); settings: 2 µM
[52] = The drug is tested on Bacteroides fragilis strain: ATCC43859 for biotransformation. The drug concentrations were measured before and after a 12-h incubation by liquid-chromatography-coupled mass spectrometry (LC–MS); settings: 2 µM
[53] = The drug is tested on Bacteroides fragilis strain: HMW610 for biotransformation. The drug concentrations were measured before and after a 12-h incubation by liquid-chromatography-coupled mass spectrometry (LC–MS); settings: 2 µM
[54] = The drug is tested on Blautia luti strain: DSM14534 for biotransformation. The drug concentrations were measured before and after a 12-h incubation by liquid-chromatography-coupled mass spectrometry (LC–MS); assay type: ADME; design: dose 2 uM, timepoint 0 vs 12 hours; settings: 2 µM
[55] = The drug is tested on Eubacterium ventriosum strain: ATCC27560 for biotransformation. The drug concentrations were measured before and after a 12-h incubation by liquid-chromatography-coupled mass spectrometry (LC–MS); assay type: ADME; design: dose 2 uM, timepoint 0 vs 12 hours; settings: 2 µM
[56] = The drug is tested on Clostridium asparagiforme strain: DSM15981 for biotransformation. The drug concentrations were measured before and after a 12-h incubation by liquid-chromatography-coupled mass spectrometry (LC–MS); assay type: ADME; design: dose 2 uM, timepoint 0 vs 12 hours; settings: enterocloster asparagiformis, 2 µM

SMILES: COc1cc(NC(C)CCCN)c2ncccc2c1.O=P(O)(O)O.O=P(O)(O)O (stereo not drawn) [PRIMAQUINE PHOSPHATE]
- Bacterial Biotransformation [1]: Compound metabolized
- Bacterial Biotransformation [2]: Compound metabolized
- Bacterial Biotransformation [3]: Compound metabolized
- Bacterial Biotransformation [4]: Compound metabolized
- Bacterial Biotransformation [5]: Compound metabolized
- Bacterial Biotransformation [6]: Compound NOT metabolized
- Bacterial Biotransformation [7]: Compound NOT metabolized
- Bacterial Biotransformation [8]: Compound NOT metabolized
- Bacterial Biotransformation [9]: Compound metabolized
- Bacterial Biotransformation [10]: Compound NOT metabolized
- Bacterial Biotransformation [11]: Compound metabolized
- Bacterial Biotransformation [12]: Compound metabolized
- Bacterial Biotransformation [13]: Compound NOT metabolized
- Bacterial Biotransformation [14]: Compound NOT metabolized
- Bacterial Biotransformation [15]: Compound metabolized
- Bacterial Biotransformation [16]: Compound NOT metabolized
- Bacterial Biotransformation [17]: Compound metabolized
- Bacterial Biotransformation [18]: Compound NOT metabolized
- Bacterial Biotransformation [19]: Compound NOT metabolized
- Bacterial Biotransformation [20]: Compound NOT metabolized
- Bacterial Biotransformation [21]: Compound NOT metabolized
- Bacterial Biotransformation [22]: Compound NOT metabolized
- Bacterial Biotransformation [23]: Compound NOT metabolized
- Bacterial Biotransformation [24]: Compound metabolized
- Bacterial Biotransformation [25]: Compound metabolized
- Bacterial Biotransformation [26]: Compound NOT metabolized
- Bacterial Biotransformation [27]: Compound metabolized
- Bacterial Biotransformation [28]: Compound NOT metabolized
- Bacterial Biotransformation [29]: Compound NOT metabolized
- Bacterial Biotransformation [30]: Compound NOT metabolized
- Bacterial Biotransformation [31]: Compound NOT metabolized
- Bacterial Biotransformation [32]: Compound NOT metabolized
- Bacterial Biotransformation [33]: Compound metabolized
- Bacterial Biotransformation [34]: Compound NOT metabolized
- Bacterial Biotransformation [35]: Compound NOT metabolized
- Bacterial Biotransformation [36]: Compound metabolized
- Bacterial Biotransformation [37]: Compound metabolized
- Bacterial Biotransformation [38]: Compound NOT metabolized
- Bacterial Biotransformation [39]: Compound metabolized
- Bacterial Biotransformation [40]: Compound NOT metabolized
- Bacterial Biotransformation [41]: Compound NOT metabolized
- Bacterial Biotransformation [42]: Compound metabolized
- Bacterial Biotransformation [43]: Compound NOT metabolized

- Bacterial Biotransformation [2]: Compound NOT metabolized
- Bacterial Biotransformation [3]: Compound NOT metabolized
- Bacterial Biotransformation [4]: Compound metabolized
- Bacterial Biotransformation [5]: Compound NOT metabolized
- Bacterial Biotransformation [44]: Compound NOT metabolized
- Bacterial Biotransformation [45]: Compound NOT metabolized
- Bacterial Biotransformation [6]: Compound NOT metabolized
- Bacterial Biotransformation [7]: Compound NOT metabolized
- Bacterial Biotransformation [9]: Compound NOT metabolized
- Bacterial Biotransformation [10]: Compound NOT metabolized
- Bacterial Biotransformation [46]: Compound NOT metabolized
- Bacterial Biotransformation [11]: Compound NOT metabolized
- Bacterial Biotransformation [12]: Compound NOT metabolized
- Bacterial Biotransformation [13]: Compound NOT metabolized
- Bacterial Biotransformation [15]: Compound NOT metabolized
- Bacterial Biotransformation [16]: Compound NOT metabolized
- Bacterial Biotransformation [17]: Compound NOT metabolized
- Bacterial Biotransformation [18]: Compound NOT metabolized
- Bacterial Biotransformation [47]: Compound NOT metabolized
- Bacterial Biotransformation [23]: Compound metabolized
- Bacterial Biotransformation [25]: Compound NOT metabolized
- Bacterial Biotransformation [26]: Compound NOT metabolized
- Bacterial Biotransformation [27]: Compound NOT metabolized
- Bacterial Biotransformation [29]: Compound NOT metabolized
- Bacterial Biotransformation [48]: Compound NOT metabolized
- Bacterial Biotransformation [30]: Compound NOT metabolized
- Bacterial Biotransformation [31]: Compound NOT metabolized
- Bacterial Biotransformation [49]: Compound NOT metabolized
- Bacterial Biotransformation [50]: Compound NOT metabolized
- Bacterial Biotransformation [51]: Compound NOT metabolized
- Bacterial Biotransformation [52]: Compound NOT metabolized
- Bacterial Biotransformation [53]: Compound NOT metabolized
- Bacterial Biotransformation [54]: Compound NOT metabolized
- Bacterial Biotransformation [34]: Compound NOT metabolized
- Bacterial Biotransformation [36]: Compound NOT metabolized
- Bacterial Biotransformation [39]: Compound NOT metabolized
- Bacterial Biotransformation [41]: Compound NOT metabolized
- Bacterial Biotransformation [55]: Compound NOT metabolized
- Bacterial Biotransformation [42]: Compound NOT metabolized
- Bacterial Biotransformation [56]: Compound NOT metabolized
SMILES: Cc1ccc(-c2cc(C(F)(F)F)nn2-c2ccc(S(N)(=O)=O)cc2)cc1 [CELECOXIB]
